What all share (format): cell-based, human
The subject of one assay is PC3 cells. In words: Flow cytometric analysis of cell cycle (propidium iodide) in PC3. The note with it: 10 μM. On the procedure: FIG. 11. Compound I-1 induces cell cycle arrest and apoptosis in PC3 cells. Prostate cancer cells were left untreated (−) or treated with compound I-1 (10 μM) or with vehicle (DMSO) for the time indicated in the figure. (A) For flow cytometric analysis of cell cycle parameters, cells were fixed, and stained with propidium iodide. Each histogram indicates the percent of cells in G1, S, and G2/M phases of the cell cycle. Data were gated to exclude apoptotic cells for these calculations. (B) After treatment, cells were lysed and total lysates were analyzed for cellular apoptotic markers by immunoblotting using anti-PARP-1 or anti-cleaved Caspase-3 antibodies. Anti-GAPDH-1 antibody was used as loading control. (C) Some 48 h-treated PC3 cells were harvest by trypsinization, washed with PBS, and total DNA was extracted then analyzed on a 1.8% agarose gel. M indicates DNA size marker (base pairs).
Flow cytometric assays of cell cycle and cell death. Cells in fresh complete medium were plated (2×10^5 per well) into six-well plates for 18 h. After complete adhesion, cells were treated as indicated in the figures and harvested by trypsinization. […] Cells were then analyzed by flow cytometry using a FACScalibur cytometer (BD Biosciences, Mountain View, Calif.) and FlowJo program (Tree Star, Inc., Ashland, Oreg.).
A general note: In flow cytometry, cells or beads pass a laser one at a time.

Assay [1] relates to DU145 cells. In words: MTT assay (cytotoxicity / cell proliferation) in DU145. On the procedure: FIG. 4. Bioassay of compound I-1, compound I-2, and compound I-3. SPA14-3-2 is pure compound I-2. SPA14-3-3 is pure compound I-3. SPA14-3-4 is pure compound I-1. MTT assays using compound I-1, compound I-2, and compound I-3 against DU145 and RWPE-1 cells lines.
(§1) FIG. 8. Cell proliferation assay. (A) DU145 or PC3 prostate cancer were plated at a density of 1,500 cells per well in 96-well plates and incubated 18 hours at 37° C. to allow adherence. They were untreated or treated by addition of different concentrations of compound I-1 (which were added directly to the medium) or vehicle (DMSO), and proliferation was measured using a 3-(4,5-dimethylthiazol-2-yl)-2,5-diphenyltetrazolium bromide MTT assay after 3 days of treatment. Points, mean of triplicate normalized samples to vehicle sample; bars, SE. (B) GI50 after 3 days of treatment. (C) Prostate cancer cells (DU145 or PC3) or a non-malignant epithelial cells (RWPE-1) were plated at a density of 1,000 cells per well in 96-well plates and incubated 18 hours at 37° C. to allow adherence. They were untreated or treated by addition of different concentrations of compound I-1 (added directly to the medium) or vehicle (DMSO), and proliferation was by MTT assay after 5 days of treatment. Points, mean of triplicate normalized samples to vehicle sample; bars, SE.
Isolation, NMR, and X-ray crystallographic analyses. Leaves, stems, and few fruits of Physalis angulate L (Solanaceae) were collected in Rio Domingusa. Kuith/Barranquita, Amazonas Department, Northeastern Peru, and identified by the team led by Walter Lewis (collection voucher 18597, Ext. 1159). Dried and grounded material (46 g) was extracted with ethanol (1 L, 95%) for 7 days. The evaporated crude extract (6.26 g) was denoted SPA. An aliquot (1.5 g) of SPA was partitioned between dichloromethane (40 mL) and water (40 mL), affording two fractions: organic (SPA1, 500 mg) and aqueous (SPA2, 600 mg). All MTT assays were performed as described in Bates et al. “G-Rich Oligonucleotides for Cancer Treatment” Chapter 21 of Methods in Molecular Biology, Gene Therapy of Cancer, Wolfgang Walther and Ulrike S. Stein (eds.), Vol. 542, 2009, Humana Press. […] SPA14-3 (30 mg) was treated on an HPLC using a reverse phase C18 column eluted in gradient mode of methanol and water (from 80% methanol to 100% methanol) and detected at 254 nm, yielding SPA14-3-1 (0 mg), SPA14-3-2 (1.2 mg of pure compound I-2), SPA14-3-3 (4.1 mg of pure compound I-3), and SPA14-3-4 (18 mg of pure compound I-1).
(§2) General Experimental Procedure. Compound I-1 was isolated as described in Example Set 1, above. For samples of compound I-1 used in Example Set 2, HPLC and NMR indicated a purity of at least 95%. All experiments described in Example Set 2 were repeated at least two or three times. […]
On the technique in general: Formazan colour is commonly taken as a measure of viable cells.

Assay [2] has as its system DU145 cells. In words: Clonogenic assay in DU145. On the procedure: FIG. 7. Clonogenic assays in prostate cancer cells treated with compound I-1. Prostate cancer cells, DU145 (A) or PC3 (B), were plated at very low density in 6-well plates and incubated 18 h at 37° C. Cells were treated by addition of various concentrations of compound I-1 or with an equivalent volume of vehicle (DMSO), or were left untreated. After 10 days of treatment, cells were washed with cold PBS, fixed with paraformaldehyde, and stained with crystal violet solution.
Clonogenic Assay. Cells in fresh complete medium were plated at very low density (3×10^2 per well) into six-well plates for 18 h. After complete adhesion, cells were treated with compound I-1 by adding directly to the medium to give the concentration indicated in the figures. Cells were allowed to grow until visible colonies formed (10 days). Cell colonies were fixed with 4% paraformaldehyde in PBS (phosphate-buffered saline), stained with 0.25% crystal violet in 25% methanol, washed and air-dried.

Assay [3] relates to Prostate cancer cells (DU145 or PC3) or a non-malignant epithelial cells (RWPE-1). In words: MTT cell proliferation assay, 5 days, cancer versus non-malignant cells. The note with it: after five days of treatment, FIG. 8C. As to the method: as §1, §2

≈ marks a conversion by molar mass, not a printed value.

In the case of `C[C@@H]1CC[C@H]2C3C(O[C@]4([C@]5(O)CC6(C)C(=O)OC5C[C@@]6(C)O)CC[C@@]31O4)[C@H]1O[C@]13CC=CC(=O)[C@]23C` (stereo partly drawn) [I-1], in the assay on PC3 cells, the G2/M arrest entry is recorded as “able to cause G2/M arrest”. Also, the concentration for 50% growth inhibition (GI50) in the assay on DU145 cells [1] (Homo sapiens, DU-145, MTT assay, FIG. 4, read-out: GI50 against DU145) is ~1.5 µg/mL (≈ 3 µM). Besides, the “concentration of maximum antiproliferative activity” value in the assay on DU145 cells [1] (after three days of treatment) turned out to be 10 µM. Moreover, the “effect on colony formation” value in the assay on DU145 cells [2] (2.5 μM, 10 days) is listed as “Inhibitory effects”. In the assay on DU145 cells [2] (10 days of treatment), the “concentration that blocked the capacity of single cancer cells to generate colonies” value is ≥ 5 µM. Further, the “inhibition of cancer cell growth as compared to non-malignant cell growth” value in assay [3] was “selectivity inhibit cancer cell growth”.

For orientation: GI50 means the concentration that inhibits growth by half.
